Assay results published in article PMC11472310, “Distinctive Immune Signatures Driven by Structural Alterations in Desmuramylpeptide NOD2 Agonists” (Journal of Medicinal Chemistry, 2024).
Values after ≈ are worked out from the molar mass of the structure shown.

Tests used:
BMDC/T-cell cocultures = assay: T cell cytokine release in BMDC/T-cell cocultures; format: cell-based, C57BL/6 mouse; details: 10 μM; for levels of IL-6 and TNF-α secreted by CD4+ T cells: 72 h coculture
Description: (§1) For this study, we narrowed down the selection of suitable desmuramylpeptides even further. In order to assess the adjuvant potential of selected desmuramylpeptides with regard to their effect on DC-mediated activation of CD4^+ and CD8^+ T cells, we conducted an ex vivo antigen-presentation assay utilizing C57BL/6 mouse bone marrow-derived DCs (BMDCs). Upon stimulation with desmuramylpeptides at 10 μM, in conjunction with ovalbumin soluble protein (50 μg/mL), BMDCs were cocultured with carboxyfluorescein succinimidyl ester (CFSE)-labeled naïve ovalbumin-specific CD4^+ or CD8^+ T cells, which were isolated from splenocytes of OT II and OT I transgenic mice, respectively. […] Additionally, we investigated how the priming of T cells elicited by the tested compounds impacted the cytokine profiles secreted in BMDC/T-cell cocultures.
Following 72 h of coincubation with BMDCs (pretreated with desmuramylpeptides [10 μM] and washed), supernatants from CD4^+ and CD8^+ T cells were harvested as previously described. […] Standard curves were constructed using recombinant cytokines provided in the kit. Data analysis was conducted using FlowJo (Tree Star, Inc., Ashland, OR, USA) and Prism (GraphPad, San Diego, CA, USA) software. Each experiment was performed in duplicate and replicated in two independent biological runs.

[1] = system: CD4+ T cells cocultured with BMDCs; assay: BMDC antigen presentation to ovalbumin-specific CD4+ T cells (OT II); format: cell-based, C57BL/6 mouse; details: BMDCs pretreated 10 μM + ovalbumin 50 μg/mL 18 h, coculture 72 h; OVA-treated cells 63.8%
Description: as §1
(§2) CD4^+ and CD8^+ T cells were isolated from splenocytes of OT II and OT I transgenic mice using CD4^+ and CD8^+ T cell isolation kits (Miltenyi Biotec, Germany) following the manufacturer’s instructions. The purified T cells were labeled with CFSE (Invitrogen, Carlsbad, CA, USA) and subsequently washed. Next, 5 × 10^4 T cells were combined with 1 × 10^4 BMDCs/well (pretreated with desmuramylpeptides at 10 μM and 50 μg/mL ovalbumin [Invivogen, San Diego, CA, USA] for 18 h and then washed). Following a 72-h incubation period at 37 °C with 5% CO2, supernatants were harvested and stored at −80 °C for cytokine analysis. The cells were then stained with Fixable viability dye eFluor 780 (eBioscience, Thermo Fisher Scientific, MA, USA), anti-Thy1.2-PE-Cy7 antibodies (Biolegend, San Diego, CA, USA), anti-CD8-eFluor450 antibodies (eBioscience), anti-CD4-eFluor450 antibodies (eBioscience), and anti-CD25-APC antibodies (Biolegend) before analysis using a Beckman Coulter Cytoflex S flow cytometer (CA, USA) and FlowJo software (Tree Star, Inc., Ashland, OR, USA). Live Thy1.2+/CD4+ and Thy1.2+/CD8+ cells were assessed for CFSE dilution and CD25 expression. Each experiment was performed in duplicate and repeated in two independent biological replicates. Statistical significance was determined using paired t tests.

[2] = Kinetic solubility (method of Hoelke et al.); format: physicochemical
From the text: Park et al. have shown that the degree of saturation of fatty acids exerts a profound impact on permeability of fatty acylated peptides—a higher degree of unsaturation results in higher permeability.[43] PUFA can also induce significant biophysical perturbations upon incorporation into membrane phospholipids.[67],[68] […] Given that the hydrophobicity of fatty acyl residues in general reduces as the number of unsaturated sites increases,[69],[70] we decided to ascertain how such structural modifications translate to the kinetic solubility of the molecule as a whole. […] The acylation with PUFA thus provides an elegant, albeit counterintuitive, approach, by which permeability of the molecule as a whole as well as its capacity for liposomal encapsulation can be enhanced without completely abolishing its aqueous solubility.

[3] = system: CD8+ T cells cocultured with BMDCs; assay: BMDC antigen cross-presentation to ovalbumin-specific CD8+ T cells (OT I); format: cell-based, C57BL/6 mouse; details: BMDCs pretreated 10 μM + ovalbumin 50 μg/mL 18 h, coculture 72 h; OVA-treated cells 23.3%
Description: as §1
as §2, with “Each experiment was performed in duplicate and repeated in two independent biological replicates.” left out

[4] = system: human blood monocyte subsets; assay: Monocyte conversion assay in PBMCs (CD14/CD16 flow cytometry); format: cell-based; details: 10 μM, 18 h, NT 19.5%
From the text: Engagement of NOD2 has been reported to increase the levels of an anti-inflammatory monocyte subset, denoted as patrolling monocytes (CD14^–, CD16^+2), thus exerting a counterintuitive role in inflammatory processes, while concomitantly increasing the levels of total blood monocytes (released from bone marrow).[18] […] This process involves a transition from the inflammatory monocytes, typified by CD14^+CD16^–, through an intermediate subset of CD14^+CD16^+ monocytes. […] To recapitulate this phenomenon, we modified the reported procedure and employed PBMCs in lieu of isolated monocytes. Identification of human blood monocyte subsets was achieved through flow cytometry, utilizing the expression of CD14 and CD16 markers as distinguishing criteria. […] Similar to what has been reported (e.g., inactivity of murabutide),[18] also in our case not all NOD2 agonists were equally endowed with the ability to generate patrolling monocytes.
The monocyte conversion assay was conducted following previously established methods, with some adjustments.[18] Peripheral blood mononuclear cells were plated at a density of 3 × 10^6 cells/mL in 24-well plates containing 700 μL of growth medium. Cells were then treated with MDP and desmuramylpeptides (10 μM) or the corresponding vehicle (0.1% DMSO). Following an incubation period at 37 °C with 5% CO2, cells were transferred to 1.5 mL tube using phosphate-buffered saline (PBS) and scraper. The cells were blocked with human TruStain Fcx (BioLegend) and stained using antihuman CD16 antibodies/Alexa Fluor 488 (BioLegend); antihuman CD14 antibodies/PE-Cy7 (BioLegend); antihuman HLA-DR antibodies/APC-Fire750 (BioLegend) and blocked with TrueStain Monocyte Blocker. A viability dye Helix NP Blue (BioLegend) was added to the previous panel to discriminate live cells. PBMC were analyzed using an Attune NxT flow cytometer (Thermo Fisher Scientific, Waltham, MA, USA) and the FlowJo software (Tree Star, Inc., Ashland, OR, USA). Initially, lymphocytes (CD14^–, CD16^–) and NK (CD16^–, HLA-DR^–) were eliminated, after which classical, intermediate and nonclassical monocytes were specifically identified by selective gating strategy as follows: CD14^+ CD16^– (classical), CD14^+ CD16^+ (intermediate) and CD14^– CD16^+ (nonclassical). Each experiment was conducted in duplicate and repeated in three independent biological replicates.

SMILES | levels of IL-6 and TNF-α secreted by CD4+ T cells (BMDC/T-cell cocultures) | stimulating IL-2 and IL-9 production (BMDC/T-cell cocultures; CD4+ T cell coculture, 72 h) | fraction of activated and proliferating CD4+ T-cells (CD25+, CFSE low) [1] | solubility kinetic [2] | fraction of activated and proliferating CD8+ T-cells (CD25+, CFSE low) [3] | levels of nonclassical monocytes [4] | production of the Th9-associated cytokine IL-9 (BMDC/T-cell cocultures; CD4+ T cell coculture, 72 h) | diminished solubility compared to parent compound 1 ([2]; kinetic solubility)
CCCC(=O)Oc1ccc(/C=C/C(=O)NCC(=O)N[C@H](C(=O)N[C@H](CCC(=O)OCC)C(=O)OCC)C(C)C)cc1OC [Compound 3, Diethyl ((E)-3-(4-(Butyryloxy)-3-methoxyphenyl)acryloyl)glycyl-L-valyl-D-glutamate] | slightly increased | most notable | 77.9% | 178 µM (≈ 108 µg/mL) | 29.3% | 31.9% | – | –
CCOC(=O)CC[C@@H](NC(=O)[C@@H](NC(=O)CNC(=O)/C=C/c1ccc(OC(=O)CO[C@H]2CC[C@@]3(C)C(=CC[C@H]4[C@@H]5CC[C@H]([C@H](C)CCCC(C)C)[C@@]5(C)CC[C@@H]43)C2)c(OC)c1)C(C)C)C(=O)OCC [Compound 26, Diethyl ((E)-3-(4-(2-(((8S,9S,10R,13R,14S,17R)-10,13-Dimethyl-17-((R)-6-methylheptan-2-yl)-2,3,4,7,8,9,10,11,12,13,14,15,16,17-tetradecahydro-1H-cyclopenta[a]phenanthren-3-yl)oxy)acetoxy)-3-methoxyphenyl)acryloyl)glycyl-L-valyl-D-glutamate] | – | – | 62.7% | – | – | 44.8% | – | –
CC/C=C\C/C=C\C/C=C\C/C=C\C/C=C\CCCC(=O)Oc1ccc(/C=C/C(=O)NCC(=O)N[C@H](C(=O)N[C@H](CCC(=O)OCC)C(=O)OCC)C(C)C)cc1OC [Compound 23, Diethyl ((E)-3-(4-(((5Z,8Z,11Z,14Z,17Z)-Icosa-5,8,11,14,17-pentaenoyl)oxy)-3-methoxyphenyl)acryloyl)glycyl-L-valyl-D-glutamate] | slightly increased | most notable | 79.7% | 105 µM (≈ 86.1 µg/mL) | 34.1% | 31.0% | augmented | 4 factor
